US4594340A, “25,26-dehydro-1α,24R-dihydroxycholecalciferol and 25,26-dehydro-1α,24S-dihydroxycholecalciferol and the epimeric mixture” (Hoffmann-La Roche Inc., priority 1984, dated 1986)
Read-outs that look alike come from different tables or passages of the source.

Key:
HL-60 cells = test: Anti-proliferative effect on HL-60 cells (Coulter Counter enumeration); format: cell-based, human (patient); details: for inhibition at 0.015 µM / inhibition at 0.045 µM / inhibition at 0.09 µM: Homo sapiens, read-out: percent reduction of cell numbers relative to control
Experimental: Cultures of HL-60 cells were established in the absence (control) or presence of various concentrations of the test compound. After a 4-day incubation period, the cultures were evaluated for proliferation of tumor cells, tumor cell viability, and cellular differentiation. Proliferation was assessed by directly enumerating the increased number of tumor cells resulting from incubation. Viability was determined by dye exclusion technique to learn whether any of the compounds were lethal to cultured HL-60 cells. Cellular differentiation was evaluated by determining the number of cells which had acquired the enzymes necessary to support a respiratory burst and the functional ability to phagocytose (bind/internalize) particulate material from their environment; both activities being characteristic of mature macrophages and granulocytes,
Tissure culture medium used in these experiments was RPM1-1640 supplemented prior to use to 10% v/v with fetal bovine serum (heat inactivated at 56° for 30 minutes), to 130 units per ml with penicillin and 130 μg per ml with streptomycin, and to an additional 1.6 millimolar with L-glutamine.
Experimental compounds were dissolved in sufficient ethanol to yield stock solutions of 1×10^-2 molar. Reduced lighting was employed when working with compounds and stock solutions were stored in the dark at -20° in an argon atmosphere. Compounds were diluted with tissue culture medium and added to flasks containing HL-60 cells to achieve the final concentrations described in each experiment.
The promyelocytic (HL-60) tumor cell line was derived from a patient with acute promyelocytic leukemia. HL-60 cells were maintained in liquid culture by serial weekly passage in tissue culture medium. In any experiment, three replicate flasks were incubated without compound (control) or in the presence of varying concentrations of compound. […]
Quantitation of proliferation was done by enumerating the number of HL-60 cells in each individual flasks (3 flasks per experimental point) using a model ZBI Coulter Counter. Results are shown as the number of cells per ml of tissue culture medium expressed as the mean±standard deviation and as percent reduction of cell number calculated according to the formula: [formula] Experimental cultures with the same or slightly greater cell numbers than control cultures are reported as zero percent reduction.

[1] = Antirachitogenic increase in tibia ash in chicks on vitamin D-deficient diet; format: in vivo, chick (White Leghorn cockerels)
Experimental: **Oneday-old White Leghorn cockerels were placed on a vitamin Ddeficient
diet which contained 1% calcium and 0.7% phosphorus and were housed under
ultravioletfree lighting (General Electric F40G0 gold fluorescent lights)
The test compound was dissolved in propylene glycol and administered
orally in a volume of 0.2 ml/day for 21 consecutive days. Controls were
treated with vehicle alone. Chicks were autopsied on the day after the […]

C=C(C)[C@H](O)CC[C@@H](C)[C@H]1CC[C@H]2/C(=C/C=C3/C[C@@H](O)C[C@H](O)C3=C)CCC[C@]12C [25,26-dehydro-1α,24R-dihydroxycholecalciferol]
inhibition of proliferation of HL-60 cells (HL-60 cells): inhibited by 25,26-dehydro-1α,24R-dihydroxycholecalciferol in a dose-dependent fashion | HL-60 Cells per ml (HL-60 cells; 15 × 10^-9 molar (first line of that concentration), day 3): 12.0 ± 0.2 cells per ml (× 10^-4) | HL-60 Cells per ml (HL-60 cells; 15 × 10^-9 molar (first line of that concentration), day 4): 24.1 ± 1.0 cells per ml (× 10^-4) | HL-60 Cells per ml (HL-60 cells; 15 × 10^-9 molar (first line of that concentration), day 6): 113.0 ± 1.4 cells per ml (× 10^-4) | HL-60 Cells per ml (HL-60 cells; 15 × 10^-9 molar (second line), day 3): 12.0 ± 0.5 cells per ml (× 10^-4) | HL-60 Cells per ml (HL-60 cells; 15 × 10^-9 molar (second line), day 4): 22.0 ± 0.4 cells per ml (× 10^-4) | HL-60 Cells per ml (HL-60 cells; 15 × 10^-9 molar (second line), day 6): 71.4 ± 1.3 cells per ml (× 10^-4) | HL-60 Cells per ml (HL-60 cells; 45 × 10^-9 molar, day 3): 12.3 ± 0.2 cells per ml (× 10^-4) | HL-60 Cells per ml (HL-60 cells; 45 × 10^-9 molar, day 4): 19.0 ± 0.8 cells per ml (× 10^-4) | HL-60 Cells per ml (HL-60 cells; 45 × 10^-9 molar, day 6): 31.4 ± 0.5 cells per ml (× 10^-4) | HL-60 Cells per ml (HL-60 cells; 90 × 10^-9 molar, day 3): 11.8 ± 0.1 cells per ml (× 10^-4) | HL-60 Cells per ml (HL-60 cells; 90 × 10^-9 molar, day 4): 15.4 ± 0.9 cells per ml (× 10^-4) | HL-60 Cells per ml (HL-60 cells; 90 × 10^-9 molar, day 6): 21.4 ± 1.1 cells per ml (× 10^-4) | inhibition at 0.015 µM (HL-60 cells; HL-60, 72 h, 15 × 10^-9 molar (first line of that concentration), day 3): 0% | inhibition at 0.015 µM (HL-60 cells; HL-60, 72 h, 15 × 10^-9 molar (second line), day 3): 0% | inhibition at 0.045 µM (HL-60 cells; HL-60, 72 h, 45 × 10^-9 molar, day 3): 0% | inhibition at 0.09 µM (HL-60 cells; HL-60, 72 h, 90 × 10^-9 molar, day 3): 0% | inhibition at 0.015 µM (HL-60 cells; HL-60, 96 h, 15 × 10^-9 molar (first line of that concentration), day 4): 9% | inhibition at 0.015 µM (HL-60 cells; HL-60, 96 h, 15 × 10^-9 molar (second line), day 4): 17% | inhibition at 0.045 µM (HL-60 cells; HL-60, 96 h, 45 × 10^-9 molar, day 4): 28% | inhibition at 0.09 µM (HL-60 cells; HL-60, 96 h, 90 × 10^-9 molar, day 4): 42% | inhibition at 0.015 µM (HL-60 cells; HL-60, 144 h, 15 × 10^-9 molar (first line of that concentration), day 6): 11% | inhibition at 0.015 µM (HL-60 cells; HL-60, 144 h, 15 × 10^-9 molar (second line), day 6): 44% | inhibition at 0.045 µM (HL-60 cells; HL-60, 144 h, 45 × 10^-9 molar, day 6): 75% | inhibition at 0.09 µM (HL-60 cells; HL-60, 144 h, 90 × 10^-9 molar, day 6): 83% | inhibition of proliferation detectable by cell enumeration as early as (HL-60 cells; day of incubation): 4 days | Antirachitogenic Increase in Tibia Ash in Chicks ([1]; 300 ng, orally, 21 consecutive days): 20% | potential for hypercalcemia ([1]; than for 1α,25-dihydroxycholecalciferol, as indicated by increase in tibia ash weight in chicks): much less
